Laboratory results: ChEMBL document CHEMBL1201862, “PubChem BioAssay data set” (2004)
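48-hour exposure; five concentrations; linearly interpolated endpoints. Abbreviation: GI50, concentration required for 50% inhibition of growth.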 The source made the active and inactive calls. Cut-off read from the data, not from the text of the source: active = GI50 up to about 1.1 µM and inactive = higher.

What was measured:
Assay in all cases: DTP human tumour cell line panel, 48 h
[1] = tested on: NCI-H522
[2] = tested on: MOLT-4
[3] = tested on: TK-10
[4] = tested on: SK-MEL-5
[5] = tested on: OVCAR-5
[6] = tested on: K562
[7] = tested on: RPMI-8226
[8] = tested on: OVCAR-4
[9] = tested on: LXFL 529
[10] = tested on: CAKI-1
[11] = tested on: EKVX
[12] = tested on: A498
[13] = tested on: U-251
[14] = tested on: OVCAR-8
[15] = tested on: HOP-62
[16] = tested on: 786-0
[17] = tested on: MDA-MB-231
[18] = tested on: PC-3
[19] = tested on: BT-549

Structure (SMILES)	GI50 [1]	GI50 [2]	GI50 [3]	GI50 [4]	GI50 [5]	GI50 [6]	GI50 [7]	GI50 [8]	GI50 [9]	GI50 [10]	GI50 [11]	GI50 [12]	GI50 [13]	GI50 [14]	GI50 [15]	GI50 [16]	GI50 [17]	GI50 [18]	GI50 [19]
C=CC/N=C1\N=C(C)C(C(=O)OCC)S1 (stereo not drawn)	> 100 µM (inactive)	> 100 µM (inactive)	> 100 µM (inactive)	> 100 µM (inactive)	> 100 µM (inactive)	> 100 µM (inactive)	> 100 µM (inactive)	> 100 µM (inactive)	> 100 µM (inactive)	> 100 µM (inactive)	> 100 µM (inactive)	> 100 µM (inactive)	> 100 µM (inactive)	> 100 µM (inactive)	> 100 µM (inactive)	> 100 µM (inactive)	–	–	–
C[Si]1(C)C(c2ccccc2)=CC2C(c3ccccc3)(c3ccccc3)OC21c1ccccc1 (stereo not drawn)	> 100 µM (inactive)	58.1 µM (inactive)	> 100 µM (inactive)	63.7 µM (inactive)	> 100 µM (inactive)	87.7 µM (inactive)	30.1 µM (inactive)	> 100 µM (inactive)	> 100 µM (inactive)	> 100 µM (inactive)	> 100 µM (inactive)	> 100 µM (inactive)	> 100 µM (inactive)	–	> 100 µM (inactive)	> 100 µM (inactive)	–	–	–
CC/C(CC(=O)CCC(=O)Nc1ccccc1[N+](=O)[O-])=N/NC(=O)C[n+]1ccccc1	> 100 µM (inactive)	> 100 µM (inactive)	> 100 µM (inactive)	> 100 µM (inactive)	> 100 µM (inactive)	> 100 µM (inactive)	> 100 µM (inactive)	> 100 µM (inactive)	> 100 µM (inactive)	> 100 µM (inactive)	> 100 µM (inactive)	> 100 µM (inactive)	> 100 µM (inactive)	> 100 µM (inactive)	> 100 µM (inactive)	> 100 µM (inactive)	–	–	–
COC12C=CC(CC1)c1c(O)ccc(O)c12 (stereo not drawn)	16.8 µM (inactive)	22.8 µM (inactive)	> 49.7 µM (inactive)	45 µM (inactive)	> 100 µM (inactive)	22.6 µM (inactive)	50.8 µM (inactive)	19.6 µM (inactive)	25.4 µM (inactive)	> 80.9 µM (inactive)	> 66.2 µM (inactive)	> 100 µM (inactive)	38.9 µM (inactive)	33 µM (inactive)	> 100 µM (inactive)	> 64.9 µM (inactive)	–	–	–
C/C(=C(/C)c1cc[n+](C)cc1)c1cc[n+](C)cc1	18.8 µM (inactive)	> 75 µM (inactive)	> 75 µM (inactive)	> 75 µM (inactive)	> 75 µM (inactive)	54.8 µM (inactive)	28 µM (inactive)	69.8 µM (inactive)	69.8 µM (inactive)	> 75 µM (inactive)	> 75 µM (inactive)	> 75 µM (inactive)	> 75 µM (inactive)	> 75 µM (inactive)	> 75 µM (inactive)	> 75 µM (inactive)	–	–	–
COc1ccc2nc3ccccc3c(NCCCCCCN(CCCl)CCCl)c2c1	0.0338 µM (active)	0.0124 µM (active)	1.04 µM (active)	0.304 µM (active)	0.45 µM (active)	0.019 µM (active)	0.0122 µM (active)	0.158 µM (active)	0.107 µM (active)	0.0353 µM (active)	0.895 µM (active)	0.405 µM (active)	0.0528 µM (active)	0.0627 µM (active)	0.212 µM (active)	0.0161 µM (active)	486 nM (active)	51.4 nM (active)	323 nM (active)
